Source: US20190030018A1 (Celgene Corporation, priority 2017, published 2019)

Tested on: 563 solid tumor cell lines
Experiment: Luminex assay in PRISM, 5 days treatment (AUC)
Type: cell-based
Design: AUC: scale not given here
Protocol: The AUC values provided in Table 80 below were calculated based on the Median Fluorescent Intensity values, the primary read out of the Luminex assay in PRISM. The following parameters were used in this assay: • 8 point dose was used in triplicate • max concentration of 10 μM was used with serial 4-fold dilutions (low of […]) • 563 adherent cell lines in 23 pools. • treatment duration was 5 days.

O=C1CCC(N2Cc3cc(CNC(=O)C(F)(F)c4ccc(Cl)cc4)ccc3C2=O)C(=O)N1 (stereo not shown) [Compound 1, 2-(4-chlorophenyl)-N-((2-(2,6-dioxopiperidin-3-yl)-1-oxoisoindolin-5-yl)methyl)-2,2-difluoroacetamide]
AUC (MON_SOFT_TISSUE): 0.789
AUC (MPP89_PLEURA): 0.822
AUC (NB1_AUTONOMIC_GANGLIA): 0.096
AUC (NCIH23_LUNG): 0.951
AUC (NCIH28_PLEURA): 0.936
AUC (NCIH226_LUNG): 0.637
AUC (NCIH322_LUNG): 0.714
AUC (NCIH441_LUNG): 0.755
AUC (NCIH446_LUNG): 0.820
AUC (NCIH460_LUNG): 0.917
AUC (NCIH520_LUNG): 0.562
AUC (NCIH522_LUNG): 0.974
AUC (NCIH596_LUNG): 0.893
AUC (NCIH647_LUNG): 0.957
AUC (NCIH650_LUNG): 0.854
AUC (NCIH661_LUNG): 0.819
AUC (NCIH747_LARGE_INTESTINE): 0.836
AUC (NCIH838_LUNG): 0.834
AUC (NCIH841_LUNG): 0.848
AUC (NCIH1048_LUNG): 0.116
AUC (NCIH1299_LUNG): 0.806
AUC (NCIH1339_LUNG): 0.815
AUC (NCIH1355_LUNG): 0.878
AUC (NCIH1373_LUNG): 0.959
AUC (NCIH1435_LUNG): 0.862
AUC (NCIH1437_LUNG): 0.882
AUC (NCIH1563_LUNG): 0.140
AUC (NCIH1568_LUNG): 0.790
AUC (NCIH1573_LUNG): 0.995
AUC (NCIH1581_LUNG): 0.552
AUC (NCIH1623_LUNG): 0.997
AUC (NCIH1648_LUNG): 0.828
AUC (NCIH1650_LUNG): 0.835
AUC (NCIH1693_LUNG): 0.949
AUC (NCIH1703_LUNG): 0.879
AUC (NCIH1793_LUNG): 0.290
AUC (NCIH1915_LUNG): 0.876
AUC (NCIH1944_LUNG): 0.911
AUC (NCIH1975_LUNG): 0.866
AUC (NCIH2009_LUNG): 0.760
AUC (NCIH2030_LUNG): 0.839
AUC (NCIH2073_LUNG): 0.878
AUC (NCIH2077_LUNG): 0.855
AUC (NCIH2087_LUNG): 0.866
AUC (NCIH2110_LUNG): 0.837
AUC (NCIH2126_LUNG): 0.820
AUC (NCIH2170_LUNG): 0.887
AUC (NCIH2172_LUNG): 0.794
AUC (NCIH2196_LUNG): 0.870
AUC (NCIH2228_LUNG): 0.851
AUC (NCIH2347_LUNG): 0.324
AUC (NCIH2444_LUNG): 0.620
AUC (NCIH2452_PLEURA): 0.843
AUC (NCIN87_STOMACH): 0.881
AUC (NUGC3_STOMACH): 0.261
AUC (NUGC4_STOMACH): 0.839
AUC (OAW28_OVARY): 0.814
AUC (OC314_OVARY): 0.915
AUC (OC316_OVARY): 0.872
AUC (OE19_OESOPHAGUS): 0.808
AUC (OE21_OESOPHAGUS): 0.893
AUC (OE33_OESOPHAGUS): 0.847
AUC (ONS76_CENTRAL_NERVOUS_SYSTEM): 0.811
AUC (OSRC2_KIDNEY): 0.842
AUC (OV7_OVARY): 0.597
AUC (OV56_OVARY): 0.874
AUC (OV90_OVARY): 0.939
AUC (OVCAR8_OVARY): 0.844
AUC (OVISE_OVARY): 0.630
AUC (OVKATE_OVARY): 0.851
AUC (OVSAHO_OVARY): 0.617
AUC (OVTOKO_OVARY): 0.907
AUC (PANC1_PANCREAS): 0.781
AUC (PANC0203_PANCREAS): 0.927
AUC (PANC0327_PANCREAS): 0.813
AUC (PANC0403_PANCREAS): 0.877
AUC (PANC0504_PANCREAS): 0.245
AUC (PANC1005_PANCREAS): 0.540
AUC (PATU8902_PANCREAS): 0.145
AUC (PATU8988T_PANCREAS): 0.075
AUC (PC3_PROSTATE): 0.735
AUC (PC14_LUNG): 0.500
AUC (PECAPJ15_UPPER_AERODIGESTIVE_TRACT): 0.877
AUC (PECAPJ41CLONED2_UPPER_AERODIGESTIVE_TRACT): 0.719
AUC (PECAPJ49_UPPER_AERODIGESTIVE_TRACT): 0.843
AUC (PEDS005TADH_KIDNEY): 0.448
AUC (PEDS015T_SOFT_TISSUE): 0.814
AUC (PK1_PANCREAS): 0.859
AUC (PK45H_PANCREAS): 0.843
AUC (PK59_PANCREAS): 0.778
AUC (PLCPRF5_LIVER): 0.833
AUC (PSN1_PANCREAS): 0.820
AUC (QGP1_PANCREAS): 0.976
AUC (RCC10RGB_KIDNEY): 0.801
AUC (RDES_BONE): 0.571
AUC (RD_SOFT_TISSUE): 0.769
AUC (RERFLCAD1_LUNG): 0.782
AUC (RERFLCAD2_LUNG): 0.874
AUC (RERFLCAI_LUNG): 0.859
AUC (RERFLCKJ_LUNG): 0.824
AUC (RKN_SOFT_TISSUE): 0.988
AUC (RKO_LARGE_INTESTINE): 0.847
AUC (RL952_ENDOMETRIUM): 0.403
AUC (RMUGS_OVARY): 0.857
AUC (RPMI7951_SKIN): 0.786
AUC (RT112_URINARY_TRACT): 0.766
AUC (RVH421_SKIN): 0.839
AUC (S117_SOFT_TISSUE): 0.866
AUC (SBC5_LUNG): 0.948
AUC (SCC25_UPPER_AERODIGESTIVE_TRACT): 0.782
AUC (SF126_CENTRAL_NERVOUS_SYSTEM): 0.862
AUC (SF295_CENTRAL_NERVOUS_SYSTEM): 0.917
AUC (SF539_CENTRAL_NERVOUS_SYSTEM): 0.888
AUC (SH4_SKIN): 0.537
AUC (SH10TC_STOMACH): 0.886
